The text below walks through data of PMC7560456, “Synthesis, Selected Transformations, and Biological Activity of Alkoxy Analogues of Lepidilines A and C” (Materials, 2020).

The subject of data set [1] is HL-60 cells. Nature of the data set: MTT in vitro cytotoxicity assay, HL-60. It counts as cell-based. The note with it: concentration required to inhibit metabolic activity by 50%, mean ± SEM. How it is done:
(§1) The promyelocytic leukemia HL-60 and breast cancer adenocarcinoma MCF-7 cell lines were purchased from the European Collection of Cell Cultures (ECACC). […] MCF-7 cells were maintained in Minimum Essential Medium Eagle (Sigma Aldrich, St. Louis, MO, USA) supplemented with 2 mM glutamine and MEM nonessential amino-acid solution (Sigma Aldrich, St. Louis, MO, USA). Both media were supplemented with 10% heat-inactivated fetal bovine serum (Biological Industries, Beit-Haemek, Israel) and antibiotics (100 U/mL penicillin and 100 μg/mL streptomycin) (Sigma-Aldrich, St. Louis, MO, USA). Human umbilical vein endothelial cells (HUVECs) and human mammary gland/breast cell line MCF-10A were purchased from the American Type Culture Collection (ATCC). HUVECs were cultured using the EGM-2 Endothelial Medium BulletKit, whereas MCF-10A was cultured using the MEGM Mammary Epithelial BulletKit, both purchased from Lonza (Lonza, Walkersville, MD, USA).
(§2) The MTT (3-(4, 5-dimethylthiazol-2-yl)-2, 5-diphenyltetrazolium bromide) assay was performed according to the known procedure. Cells were seeded into 24-well plates at a density of 8 × 10^4/mL and left to grow for 24 h. After being cultured for 48 h with various concentrations of the tested compounds, cells were incubated with MTT solution (5 mg/mL in phosphate-buffered saline) for 2 h. Then, the plates were centrifuged and the supernatant was discarded. Dimethyl sulfoxide (DMSO; 1 mL) was added to each well to dissolve the blue formazan product, whose absorbance was measured at 560 nm using a FlexStation 3 Multi-Mode Microplate Reader (Molecular Devices, LLC, CA, USA). The untreated cells were used as control. The data were expressed as mean ± SEM of three independent experiments.

Data set [2] has as its system MCF-10A cells. In words: MTT in vitro cytotoxicity assay, MCF-10A (normal cells). It counts as cell-based, human. The conditions noted are these: 48 h, mean ± SEM. The method, then:
as §1, §2

For data set [3], the system named is MCF-7 cells. Nature of the data set: MTT in vitro cytotoxicity assay, MCF-7. It counts as cell-based. The conditions noted are these: concentration required to inhibit metabolic activity by 50%, mean ± SEM. How it is done: as §1, §2
Data set [4] deals with HUVECs. In words: MTT in vitro cytotoxicity assay, HUVEC (normal cells). It counts as cell-based, human. The note with it: 48 h, mean ± SEM. The method, then:
as §1, §2

The subject of data set [5] is UMUC3 cell line. Also on record: method as in PMID 12932133. The note with it: bladder carcinoma; cited from earlier work.
In data set [6] the test system is FDIGROV cell line. Also on record: method as in PMID 12932133. The note with it: ovarian carcinoma; cited from earlier work.
The test system of data set [7] is PACA2 cell line. Also on record: method as in PMID 12932133. The note with it: pancreatic adenocarcinoma; cited from earlier work.
The test system of data set [8] is MDA231 cell line. Set-up: method as in PMID 12932133. The conditions noted are these: breast carcinoma; cited from earlier work.

Entries after “also recorded” stand apart in the source; their conditions may differ. Structures can show the parent of a compound that is named as a salt.

Consider “1-Adamantyloxy-3-(4-methylbenzyloxy)-4,5-dimethylimidazolium bromide [5j]”, for which the IC50 in data set [1] (48 h) is 390 ± 10 nM; in [2] it was 1690 ± 40 nM; in data set [3] (48 h) it was 2630 ± 30 nM; in [4], 1940 ± 10 nM.

As to `Cc1c(C)[n+](OCc2ccccc2)cn1Cc1ccccc1.[Br-]` [4a, 1-Benzyl-3-benzyloxy-4,5-dimethylimidazolium bromide], the melting point lay in the range of 148 to 150 °C.

On to `Cc1ccc(COn2c[n+]([O-])c(C)c2C)cc1` [3e, 1-(4-Methylbenzyloxy)-4,5-dimethyl-1H-imidazole 3-oxide], for which the melting point lay within 101 to 102 °C.

As for `Cc1ccc(COn2c[n+](OCc3ccc(C)cc3)c(C)c2C)cc1.[Br-]` [5c, 1,3-Di-(4-methylbenzyloxy)-4,5-dimethylimidazolium bromide], the melting point was in the range of 111 to 113 °C. In data set [1] (Homo sapiens, HL-60, 48 h), this molecule showed an IC50 of 4880 ± 180 nM. It took 24200 ± 460 nM to reach half-maximal inhibition in data set [3] (Homo sapiens, MCF7, 48 h) (IC50).

`Cc1ccccc1COn1c[n+]([O-])c(C)c1C` [3d, 1-(2-Methylbenzyloxy)-4,5-dimethyl-1H-imidazole 3-oxide]: the melting point was 89 to 91 °C.

Consider `Cc1cc(C)cc(COn2c[n+](OCc3cc(C)cc(C)c3)c(C)c2C)c1.[Br-]` [5d, 1,3-Di-(3,5-dimethylbenzyloxy)-4,5-dimethylimidazolium bromide], for which the melting point lay within 141 to 143 °C. In addition, 1460 ± 20 nM corresponded to half-maximal inhibition in data set [1] (Homo sapiens, HL-60, 48 h) (IC50). This molecule came in with a 50% inhibitory concentration (IC50) in data set [3] (Homo sapiens, MCF7, 48 h) of 8570 ± 370 nM.

With `c1ccc(CO[n+]2cn(Cc3ccccc3)c(-c3ccccc3)c2-c2ccccc2)cc1` [6a, 1-Benzyl-3-benzyloxy-4,5-diphenylimidazolium hexafluorophosphate], the IC50 in [1] (Homo sapiens, HL-60, 48 h) worked out at 640 ± 20 nM; in [3] (Homo sapiens, MCF7, 48 h), 1290 ± 10 nM.

In the case of `Cc1c(C)n(OCc2ccccc2)c(=S)n1OCc1ccccc1` [7c, 1,3-Dibenzyloxy-4,5-dimethylimidazole-2-thione], the melting point lay in the range of 87 to 88 °C.

As to `Cc1c(C)n(OCc2ccccc2)c(=S)n1Cc1ccccc1` [7a, 1-Benzyl-3-benzyloxy-4,5-dimethylimidazole-2-thione], the melting point fell in the range of 116 to 117 °C.

Consider `Cc1c(C)[n+](Cc2ccccc2)c(C)n1Cc1ccccc1` [lepidiline B], for which the “activity against UMUC3 cell line” value in data set [5] is “promising activity; also recorded: highly cytotoxic”. Further, the “activity against FDIGROV cell line” value in data set [6] is listed as “some activity; also recorded: highly cytotoxic”. The “activity against PACA2 cell line” value in data set [7] is given as “promising activity; also recorded: highly cytotoxic”. The “activity against MDA231 cell line” value in data set [8] is recorded as “promising activity; also recorded: highly cytotoxic”.

As to `Cc1ccccc1CO[n+]1cn(OCc2ccccc2)c(C)c1C` [5e, 1-Benzyloxy-3-(2-methylbenzyloxy)-4,5-dimethylimidazolium bromide], the IC50 in data set [1] (Homo sapiens, HL-60, 48 h) was 3160 ± 180 nM; in data set [3] (Homo sapiens, MCF7, 48 h), 11600 ± 250 nM.

As for “1-Adamantyloxy-3-benzyloxy-4,5-dimethylimidazolium bromide [5h]”, the IC50 amounted to 880 ± 80 nM in data set [1] (48 h), 6400 ± 30 nM in [2], 6760 ± 80 nM in data set [3] (48 h) and 3700 ± 230 nM in data set [4].

The molecule `Cc1cc(C)cc(CO[n+]2cn(OC34CC5CC(CC(C5)C3)C4)c(C)c2C)c1` (as salt: phosphate) (hydrate or solvate) [6b, 1-Adamantyloxy-3-(3,5-dimethylbenzyloxy)-4,5-dimethylimidazolium hexafluorophosphate] gave a melting point of 150 to 152 °C.

`Cc1[nH]c(C23CC4CC(CC(C4)C2)C3)[n+](OCc2ccccc2)c1C.[Br-]` [4c, 1-Adamantyl-3-benzyloxy-4,5-dimethylimidazolium bromide] returned a melting point of 196 to 197 °C.

Take `[Br-].c1ccc(CO[n+]2c(C34CC5CC(CC(C5)C3)C4)[nH]c(-c3ccccc3)c2-c2ccccc2)cc1` [4d, 1-Adamantyl-3-benzyloxy-4,5-diphenylimidazolium bromide]: the melting point is 180 to 182 °C.

As to `Cc1cc(C)cc(CO[n+]2cn(OC34CC5CC(CC(C5)C3)C4)c(C)c2C)c1` [6b, 1-Adamantyloxy-3-(3,5-dimethylbenzyloxy)-4,5-dimethylimidazolium hexafluorophosphate], the IC50 came to 370 ± 10 nM in data set [1] (Homo sapiens, HL-60, 48 h) and 2520 ± 30 nM in data set [3] (Homo sapiens, MCF7, 48 h).

Take “1-Adamantyloxy-3-(3,5-dimethylbenzyloxy)-4,5-dimethylimidazolium bromide [5k]”: the IC50 in [1] (48 h) is 360 ± 10 nM; in [2] it was 1360 ± 10 nM; in [3] (48 h) it was 2400 ± 60 nM; in data set [4] it was 1820 ± 80 nM.

Regarding `Cc1cc(C)cc(COn2c[n+]([O-])c(C)c2C)c1` [3f, 1-(3,5-Dimethylbenzyloxy)-4,5-dimethyl-1H-imidazole 3-oxide], the melting point is 96 to 98 °C.

`[Br-].c1ccc(CO[n+]2cn(Cc3ccccc3)c(-c3ccccc3)c2-c2ccccc2)cc1` [4b, 1-Benzyl-3-benzyloxy-4,5-diphenylimidazolium bromide] displayed a melting point of 167 to 169 °C. This molecule also displayed an IC50 in [1] (48 h) of 700 ± 30 nM. Further, the IC50 in data set [2] (Homo sapiens, MCF-10A) was found to be 570 ± 10 nM. The same molecule displayed an IC50 in data set [3] (48 h) of 1530 ± 90 nM. This molecule displayed an IC50 in [4] (Homo sapiens, HUVEC) of 970 ± 30 nM.

Turning to `Cc1ccccc1COn1c[n+](OCc2ccccc2C)c(C)c1C.[Br-]` [5b, 1,3-Di-(2-methylbenzyloxy)-4,5-dimethylimidazolium bromide], the melting point was 132 to 133 °C. In data set [1] (Homo sapiens, HL-60, 48 h), this molecule yielded an IC50 of 1540 ± 10 nM. For the same molecule, the midpoint of inhibition in [3] (Homo sapiens, MCF7, 48 h), the IC50, lay at 8300 ± 10 nM.

As for `Cc1c(C)[n+]([O-])cn1OCc1ccccc1` [3c, 1-Benzyloxy-4,5-dimethyl-1H-imidazole 3-oxide], the melting point was 103 to 105 °C.

`Cc1c(C)[n+](OCc2ccccc2)cn1OCc1ccccc1.[Br-]` [5a, 1,3-Dibenzyloxy-4,5-dimethylimidazolium bromide] came in with a melting point of 110 to 111 °C.

For `Cc1c(C)[n+](Cc2ccccc2)cn1Cc1ccccc1` [lepidiline A], the “activity against FDIGROV cell line” value in [6] is “some activity”.

In the case of `c1ccc(CO[n+]2cn(Cc3ccccc3)c(-c3ccccc3)c2-c2ccccc2)cc1` (as salt: phosphate) [6a, 1-Benzyl-3-benzyloxy-4,5-diphenylimidazolium hexafluorophosphate], the melting point was in the range of 163 to 166 °C.

As to “1-Adamantyloxy-3-(2-methylbenzyloxy)-4,5-dimethylimidazolium bromide [5i]”, the IC50 in [1] (48 h) is 670 ± 10 nM; in data set [3] (48 h) it was 5950 ± 350 nM; in data set [4], 3960 ± 80 nM.

Consider `Cc1ccc(CO[n+]2cn(OCc3ccccc3)c(C)c2C)cc1.[Br-]` [5f, 1-Benzyloxy-3-(4-methylbenzyloxy)-4,5-dimethylimidazolium bromide], for which the melting point lay in the range of 124 to 126 °C. This molecule also yielded an IC50 in data set [1] (Homo sapiens, HL-60, 48 h) of 2910 ± 80 nM. The molecule further returned an IC50 in data set [3] (Homo sapiens, MCF7, 48 h) of 16600 ± 1060 nM.

For orientation: IC50 means the concentration at which inhibition is half-maximal. The low end stands for higher potency, the high end for lower potency. The term melting point denotes the temperature of the solid-liquid transition.
